Reference: PMC12380353, “MK-8527 is a novel inhibitor of HIV-1 reverse transcriptase translocation with potential for extended-duration dosing” (PLOS Biology, 2025)

What was measured:
[1] = system: panel of 114 enzyme and receptor binding assays; experiment: Off-target panel of 114 enzyme and receptor-binding assays; settings: for Off-target activity: 10 μM, panel of 114 assays; for IC50: tested at 10 µM, 114 assays, read-out: IC50 in all off-target assays
Description: MK-8527 and MK-8527-TP were evaluated at 10 µM final concentration at Eurofins Panlabs (Taipei, Taiwan) for activity against a panel of 114 enzyme, radioligand binding, and cellular assays, including 70 G-protein coupled receptor, 13 ion channel, 7 kinase, 7 nuclear hormone receptor, 6 transporter, 4 protease, 2 neurotransmitter metabolism, 2 lipid metabolism, 2 oxidoreductase, and 1 phosphodiesterase assays.

HIV-1 RT = biological target: T1, HIV-1 RT (Human immunodeficiency virus type 1 group M subtype B, UniProt P04585); experiment: HIV-1 RT biochemical (ECL) assay; settings: purified recombinant RT, n = 8; read-out: IC50, RNA-dependent DNA polymerization
T1 construct: Full-length WT RT protein was expressed in Escherichia coli BL21(DE3) cells; made in house; host or cells: Escherichia coli BL21(DE3)
Description: Full-length WT RT protein was expressed in Escherichia coli BL21(DE3) cells and purified as described previously. The electrochemiluminescence (ECL) RT biochemical assay was performed based on the previously described protocol.
Briefly, the heterodimeric nucleic acid substrate used in the HIV-1 RT polymerase reactions was generated by annealing biotinylated DNA primer to a 500-nucleotide RNA template. The HIV-1 RT enzyme (final concentration of 50 pM) was combined with an inhibitor or DMSO (10% DMSO in the final reaction mixture) in assay buffer containing 62.5 mM Tris-HCl, pH 7.8, 1.25 mM dithiothreitol, 7.5 mM MgCl2, 100 mM KCl, 0.03% 3-[(3-cholamidopropyl)-dimethylammonio]-1-propanesulfonate, and 0.125 mM ethylene glycol tetraacetic acid). This mixture was preincubated for 30 min at room temperature in microtiter plates. The polymerization reaction was initiated by the addition of template:primer substrate (final concentration, 16.6 nM), and dNTPs (final concentrations were 2 μM for deoxycytidine triphosphate [dCTP], deoxyguanosine triphosphate [dGTP], and dATP and 66.6 nM for ruthenylated deoxyuridine triphosphate [Ru-dUTP]). […] The mixtures were incubated at room temperature for 60 min prior to the quantification of the reaction product via an ECL 6000 imager instrument. […]

[2] = biological target: human DNA polymerases α and β and human mitochondrial DNA polymerase γ; experiment: Human DNA polymerase inhibition assays (summary for α, β, γ); type: biochemical; settings: read-out: IC50 values against human DNA polymerases tested
Description: The activities of human DNA polymerases α, β, and γ were measured in radiolabeled nucleotide incorporation assays. TP was prepared as a 10-point titration with 3-fold serial dilution in water. Reaction buffers for the DNA polymerase α and β assays both contained 20 mM Tris pH 7.5, 10 mM MgCl2, 50 μM EDTA, 200 μg/mL bovine serum albumin (BSA), 2 mM dithiothreitol (DTT), 1.6 μM each of dNTP (dATP, dCTP, dGTP, and dTTP), 20 μCi/mL [α33P]dATP, 0.1 mg/mL gapped activated fish sperm DNA template, test compound, and 0.005 U/μL DNA polymerase α or 0.0025 U/μL DNA polymerase β. The reaction buffer for DNA polymerase γ contained 20 mM Tris pH 8, 10 mM MgCl2, 50 mM KCl, 100 μg/mL BSA, 2 mM β-mercaptoethanol, 10 μM of each dNTP (dATP, dCTP, dGTP, and dTTP), 20 μCi/mL [α33P]dATP, 0.04 mg/mL gapped activated fish sperm DNA template, test compound, and 0.0003 μg/μL DNA polymerase γ. The 50-μL reactions were incubated at room temperature for 30 min (for β and γ) or 90 min (for α) before terminating with the addition of 50 μL 500 mM EDTA. The reaction mixtures were transferred to a Millipore DE81 filter plate (EMD Millipore; Hayward, CA), washed with 0.5 M sodium phosphate pH 7.0, and dried. After addition of 40 μL scintillant to each well, the incorporation of labeled dATP was determined with a microplate counter (TopCount NXT HTS; PerkinElmer, Shelton, CA, USA).

HIV RT = biological target: T2, HIV RT (Human immunodeficiency virus type 1 group M subtype B, UniProt P04585); experiment: Iron footprinting assay of RT translocation state; type: biochemical
T2 construct: HIV RT (final concentration, 1,200 nM)
Description: The translocation state of RT was assessed with a site-specific iron footprinting assay adapted from previous work. Primer and template used for this assay are described in Fig 7A. The presence of Fe^2+ ions in the reaction generated hydroxyl radicals that cleaved the DNA template in a site-specific manner at the nucleotide closest to the RNase H active site. In addition to an RT inhibitor in the reaction, dTTP, the subsequent dNTP, was provided in dose titration to force the translocation of the 3′-primer terminus from the pre-translocation N-site to the post-translocation P-site.
(final concentration, 1 µM), or ddATP (final concentration, 5 µM), Td43/Pd30 pre-annealed primer and template (final concentration, 200 nM based on Cy3-labeled Td43 concentration), and dTTP titrated at various concentrations. All reagent stocks were in a base assay buffer consisting of 120 mM Tris pH 7.5, 20 mM NaCl, and 6 mM MgCl2 in nuclease-free water. […] The reaction was then heated to 37 °C for 5 min before quenching 1:1 with gel-loading dye followed by heating at 95 °C for 10 min. Samples were stored at −20 °C until being resolved by polyacrylamide gel electrophoresis with 7 M urea.

| SMILES | Off-target activity [1] | IC50 [1] | IC50 (HIV-1 RT) | IC50 [2] | Translocation state of RT (HIV RT; 1 µM MK-8527-TP or ISL-TP, 5 µM ddATP, absence or presence of dTTP) | dTTP concentration above which post-translocation state products (−17) began accumulating (HIV RT; 1 µM inhibitor) |
| --- | --- | --- | --- | --- | --- | --- |
| C#C[C@]1(CO)O[C@@H](n2ccc3c(N)nc(Cl)nc32)C[C@@H]1O [Compound 12, (2R,3S,5R)-5-(4-amino-2-chloro-7H-pyrrolo[2,3-d]pyrimidin-7-yl)-2-ethynyl-2-(hydroxymethyl)tetrahydrofuran-3-ol] | no off-target activities | > 10 µM |  |  |  |  |
| C#C[C@]1(COP(=O)(O)OP(=O)(O)OP(=O)(O)O)O[C@@H](n2ccc3c(N)nc(Cl)nc32)C[C@@H]1O [MK-8527-TP] | no off-target activities | > 10 µM | 0.813 ± 0.238 µM | ≥ 95 µM | remained in a pre-translocation (−18) state | > 6.2 µM |
